Measurements published in patent publication US11457631B2, “Antimicrobial compounds and methods of use” (AEQUOR, INC., priority 2016, dated 2022).

Legend:
Format in all cases: cell-based, Staphylococcus aureus
[1] = test system: S. aureus ATCC 25923; assay: Minimum Inhibitory Concentration (MIC), CLSI M07-A9 modified for 96 well plates, planktonic bacteria; conditions: overnight incubation
Method: (§1) Antibacterial and antibiofilm assay were performed on human pathogens and industrial microorganisms associated with contamination: Staphylococcus aureus (ATCC 25923 and ATCC 12600), S. epidermidis (ATCC 12228 and ATCC 14990), Pseudomonas aeruginosa (ATCC 27853), E. coli (ATCC 25922), C. albicans ATCC 18804), oral flora bacteria Streptococcus mutans (ATCC 25175) and S. gordonii (ATCC 33399), and/or marine biofilm former Cobetia marina (ATCC 25374).
(§2) Antibacterial assays were performed on planktonic bacteria to determine the Minimum Inhibitory Concentrations (MICs) and Minimum Bactericidal Concentrations (MBCs) for the compounds. MICs are defined as the lowest concentration of an antimicrobial that will inhibit the visible growth of a microorganism after overnight incubation. The MICs were determined using the standard CLSI Method M07-A9 for Dilution Antimicrobial Susceptibility Tests for Bacteria That Grow Aerobically modified for 96 well plates. MBCs are the lowest concentration of antimicrobial that kill the organism. MBCs were determined using the standard CLSI Method M26-A for Determining Bactericidal Activity of Antimicrobial Agents modified for 96 well plates.
(§3) A selection of the compounds were used in the above assays against S. aureus (ATCC 25923).

[2] = test system: S. aureus ATCC 25923; assay: Minimum Bactericidal Concentration (MBC), CLSI M26-A modified for 96 well plates; conditions: planktonic
Method: as §1, §2, §3

[3] = test system: S. aureus ATCC 25923; assay: Minimum Biofilm Inhibition Concentration (MBIC), 96-well microplate static biofilm assay
Method: as §1
Antibiofilm assays were performed to determine the prevention and removal of biofilm. The 96-well microplate assay was used to determine the Minimum Biofilm Inhibition Concentration (MBIC) (Merritt, et al. 2005. Growing and analyzing static biofilms. Curr Protoc Microbiol. Chapter 1, Unit 1.)
The MBIC assay is defined as the lowest concentration of the compound that will inhibit the biofilm. The ASTM E2799-12 Standard Test Method for Testing Pseudomonas Biofilm using the Minimum Biofilm Eradicating Concentration (MBEC) assay was used to determine biofilm removal. The MBEC assay is defined as the lowest concentration of compound that will eradicate the biofilm. The qualitative MBEC is determined using a microplate reader at absorbance 630 nm and the quantitative MBEC is determined using log10 reduction.
as §3

[4] = test system: S. aureus ATCC 25923; assay: Minimum Biofilm Eradicating Concentration (MBEC) assay, ASTM E2799-12; conditions: biofilm eradication
Method: Antibacterial and antibiofilm assay were performed on human pathogens and industrial microorganisms associated with contamination: Staphylococcus aureus (ATCC 25923 and ATCC 12600), S. epidermidis (ATCC 12228 and ATCC 14990), Pseudomonas aeruginosa (ATCC 27853), E. coli (ATCC 25922), C. albicans ATCC 18804), oral flora bacteria Streptococcus mutans (ATCC 25175) and S. gordonii (ATCC 33399), and/or marine biofilm former Cobetia marina (ATCC 25374). The MBIC assay is defined as the lowest concentration of the compound that will inhibit the biofilm. The ASTM […]-12 Standard Test Method for Testing Pseudomonas Biofilm using the Minimum Biofilm Eradicating Concentration (MBEC) assay was used to determine biofilm removal. The MBEC assay is defined as the lowest concentration of compound that will eradicate the biofilm. The qualitative MBEC is determined using a microplate reader at absorbance 630 nm and the quantitative MBEC is determined using log10 reduction. A selection of the compounds were used in the above assays against S. aureus (ATCC 25923).

CCCCNP(=O)(O)OC(C)=O [X is NH2; A is (CH2)3CH3, acetic (1-butyl phosphoramidic) anhydride]
0.25 % w/v: MIC [1] | MBC [2] | MBIC [3] | MBEC [4]
